Common to all, as to assay type: functional, cell-based
The test system of one test is CCRF-CEM. Description: Cytotoxicity against human CEM cells.
The test system of the next test is L1210. Description: Cytotoxicity against mouse L1210 cells.
Test [1] is described as follows: Cytotoxicity against human Molt 4/C8 cells. The conditions noted are these: Molt4/C8.

SMILES strings stand for the structures.

As usually defined, the IC50 is the concentration needed to halve the response being measured. In the case of `NC(=S)N/N=C/c1ccccc1Cl`, the values for the 50% inhibitory concentration (IC50) (in the test with CCRF-CEM; with L1210; in test [1]) were 98 µM, 84 µM and 200 µM, respectively.

With `Oc1ccccc1/C=N/c1ccc(F)c(Cl)c1`, the IC50 with CCRF-CEM was determined as 100 µM; in the test with L1210 it was 68 µM; in test [1] it was 112 µM.

As to `NC(=S)N/N=C/c1ccc(Cl)cc1`, the results for the half-inhibitory concentration (IC50) (in the test on CCRF-CEM; in the test on L1210; in test [1]) were 194 µM, 284 µM and 302 µM, respectively.

Regarding `NC(=S)N/N=C/c1ccccc1F`, the IC50 with CCRF-CEM was found to be 166 µM; in the test with L1210, 242 µM; in test [1], 140 µM.

Consider `COc1ccc(/C=N/NC(N)=S)cc1`, for which the IC50 with CCRF-CEM came out at 158 µM; in the test with L1210, 232 µM; in test [1] it was 196 µM.

With `NC(=S)/N=N/c1c(O)[nH]c2ccccc12`, the half-maximal inhibitory concentration (IC50) in the test on CCRF-CEM was determined as 249 µM; in the test with L1210, 382 µM; in test [1], 405 µM.
